Reference: patent publication US20220127247A1, “N-(PYRIDIN-2-YL)PYRIDINE-SULFONAMIDE DERIVATIVES AND THEIR USE IN THE TREATMENT OF DISEASE” (NOVARTIS AG, priority 2019, published 2022)

What follows are compounds tested against T1, delF508-CFTR (Homo sapiens, UniProt P13569, DEL508-508) (assay: Measurement of delF508-CFTR-HRP surface expression in CFBE41o- cells). Details: HRP-tagged delF508-CFTR in CFBE41o- cells, 24 h with compound, luminescence, 10-point curve, top 10 μM.
T1 construct: expressed in transfected cells
T1 sequence (P13569 with tags, fused parts or gaps DEL508-508): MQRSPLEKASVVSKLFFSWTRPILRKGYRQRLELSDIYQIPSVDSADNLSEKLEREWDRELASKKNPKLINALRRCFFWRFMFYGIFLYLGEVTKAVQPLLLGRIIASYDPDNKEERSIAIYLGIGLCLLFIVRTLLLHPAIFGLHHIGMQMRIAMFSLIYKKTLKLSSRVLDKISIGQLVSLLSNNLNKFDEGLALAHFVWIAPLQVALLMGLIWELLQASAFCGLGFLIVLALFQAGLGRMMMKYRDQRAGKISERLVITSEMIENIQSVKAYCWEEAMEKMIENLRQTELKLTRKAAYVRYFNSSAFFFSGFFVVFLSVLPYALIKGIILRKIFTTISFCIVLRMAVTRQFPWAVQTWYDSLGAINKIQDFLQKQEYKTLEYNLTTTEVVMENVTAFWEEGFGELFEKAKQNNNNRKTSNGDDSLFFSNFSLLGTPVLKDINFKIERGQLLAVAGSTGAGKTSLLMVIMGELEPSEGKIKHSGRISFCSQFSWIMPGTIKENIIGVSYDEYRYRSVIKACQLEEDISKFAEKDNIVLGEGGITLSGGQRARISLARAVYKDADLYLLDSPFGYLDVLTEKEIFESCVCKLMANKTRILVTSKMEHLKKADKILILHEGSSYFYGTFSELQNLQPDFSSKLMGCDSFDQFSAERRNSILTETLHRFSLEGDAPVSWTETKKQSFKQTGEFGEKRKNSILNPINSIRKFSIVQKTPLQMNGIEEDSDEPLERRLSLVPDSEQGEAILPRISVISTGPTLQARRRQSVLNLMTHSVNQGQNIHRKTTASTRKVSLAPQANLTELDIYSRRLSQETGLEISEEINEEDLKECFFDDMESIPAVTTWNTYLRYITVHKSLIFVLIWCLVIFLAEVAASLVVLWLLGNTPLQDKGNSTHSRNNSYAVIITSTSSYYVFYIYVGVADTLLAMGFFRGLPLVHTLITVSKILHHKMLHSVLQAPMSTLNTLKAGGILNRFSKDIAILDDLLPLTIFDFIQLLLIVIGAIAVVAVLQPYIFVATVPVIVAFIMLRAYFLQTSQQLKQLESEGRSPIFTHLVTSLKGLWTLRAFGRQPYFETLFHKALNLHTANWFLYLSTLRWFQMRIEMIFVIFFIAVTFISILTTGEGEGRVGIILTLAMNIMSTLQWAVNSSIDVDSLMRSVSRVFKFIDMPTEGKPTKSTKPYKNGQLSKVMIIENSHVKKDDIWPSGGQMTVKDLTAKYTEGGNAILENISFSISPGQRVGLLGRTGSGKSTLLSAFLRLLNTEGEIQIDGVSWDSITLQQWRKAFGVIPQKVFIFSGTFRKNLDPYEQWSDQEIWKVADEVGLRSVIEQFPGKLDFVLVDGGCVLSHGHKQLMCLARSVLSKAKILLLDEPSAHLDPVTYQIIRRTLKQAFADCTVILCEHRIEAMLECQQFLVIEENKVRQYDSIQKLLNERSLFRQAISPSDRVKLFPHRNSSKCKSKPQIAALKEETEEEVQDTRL
Format: cell-based
Method in brief: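 CFBE41o- cells stably expressing delF508-CFTR with HRP in the fourth extracellular loop, induced with 500 ng/mL doxycycline for 48 h, then treated with compound (top 10 μM, 10-point 3-fold) for 24 h at 37° C. Surface HRP detected by luminescence with cell-impermeant substrate; EC50 from logistic fit of triplicates, normalized to lowest concentration.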

Compound | EC50 [µM]
C=Cc1ccccc1-c1nc(NS(=O)(=O)c2cccc(N3CCCC(CCC(=O)O)C3)n2)ccc1C(F)(F)F (centres unmarked) [Compound 74, 3-(1-(6-(N-(5-(trifluoromethyl)-6-(2-vinylphenyl)pyridin-2-yl)sulfamoyl)pyridin-2-yl)piperidin-3-yl)propanoic Acid] | 1.09
Cc1ccccc1-c1nc(NS(=O)(=O)c2cccc(N3CCCC(CCCC(=O)O)C3)n2)ccc1C(F)(F)F (centres unmarked) [Compound 75, 4-(1-(6-(N-(6-(o-tolyl)-5-(trifluoromethyl)pyridin-2-yl)sulfamoyl)pyridin-2-yl)piperidin-3-yl)butanoic Acid] | 2
C=Cc1ccccc1-c1nc(NS(=O)(=O)c2cccc(N3CCCC(CCCC(=O)O)C3)n2)ccc1C(F)(F)F (centres unmarked) [Compound 76, 4-(1-(6-(N-(5-(trifluoromethyl)-6-(2-vinylphenyl)pyridin-2-yl)sulfamoyl)pyridin-2-yl)piperidin-3-yl)butanoic Acid] | 1.46
C=Cc1ccccc1-c1nc(NS(=O)(=O)c2cccc(N3CCC[C@H](CC(=O)OCC)C3)n2)ccc1C(F)(F)F [Compound 77, ethyl (R)-2-(1-(6-(N-(5-(trifluoromethyl)-6-(2-vinylphenyl)pyridin-2-yl)sulfamoyl)pyridin-2-yl)piperidin-3-yl)acetate] | 1.45
C=Cc1ccccc1-c1nc(NS(=O)(=O)c2cccc(N3CCC[C@@H](CC(=O)OC)C3)n2)ccc1C(F)(F)F [Compound 78, methyl (S)-2-(1-(6-(N-(5-(trifluoromethyl)-6-(2-vinylphenyl)pyridin-2-yl)sulfamoyl)pyridin-2-yl)piperidin-3-yl)acetate] | 1.41
Cc1ccccc1-c1nc(NS(=O)(=O)c2cccc(N3CCC(CCC(=O)O)CC3)n2)ccc1C(F)(F)F [Compound 79, 3-(1-(6-(N-(6-(o-tolyl)-5-(trifluoromethyl)pyridin-2-yl)sulfamoyl)pyridin-2-yl)piperidin-4-yl)propanoic Acid] | 2.91
CCc1ccccc1-c1nc(NS(=O)(=O)c2cccc(N3CCCC(CCC(=O)O)C3)n2)ccc1C(F)(F)F (centres unmarked) [Compound 82, 3-(1-(6-(N-(6-(2-ethylphenyl)-5-(trifluoromethyl)pyridin-2-yl)sulfamoyl)pyridin-2-yl)piperidin-3-yl)propanoic Acid] | 1.04
CCc1ccccc1-c1nc(NS(=O)(=O)c2cccc(N3CCC[C@H](CC(=O)O)C3)n2)ccc1C(F)(F)F [Compound 84, (R)-2-(1-(6-(N-(6-(2-ethylphenyl)-5-(trifluoromethyl)pyridin-2-yl)sulfamoyl)pyridin-2-yl)piperidin-3-yl)acetic Acid] | 1.54
Cc1ccccc1-c1nc(NS(=O)(=O)c2cccc(N3CCCC(CC(=O)O)C3)n2)ccc1C(F)(F)F (centres unmarked) [Compound 88, 2-(1-(6-(N-(6-(o-tolyl)-5-(trifluoromethyl)pyridin-2-yl)sulfamoyl)pyridin-2-yl)piperidin-3-yl)acetic Acid] | 2.04
Cc1ccccc1-c1nc(NS(=O)(=O)c2cccc(N3CCCCC3CCC(=O)O)n2)ccc1C(F)(F)F (centres unmarked) [Compound 98, 3-(1-(6-(N-(6-(o-tolyl)-5-(trifluoromethyl)pyridin-2-yl)sulfamoyl)pyridin-2-yl)piperidin-2-yl)propanoic Acid] | 1.54
CCc1ccc(F)cc1-c1nc(NS(=O)(=O)c2cccc(N(CCC(=O)O)C3CC3)n2)ccc1C(F)(F)F [Compound 113, 3-(cyclopropyl(6-(N-(6-(2-ethyl-5-fluorophenyl)-5-(trifluoromethyl)pyridin-2-yl)sulfamoyl)pyridin-2-yl)amino)propanoic Acid] | 1.77

More lines, now with the values ahead:

EC50 [µM] | Compound
1.45 | CCc1ccccc1-c1nc(NS(=O)(=O)c2cccc(N3CCCC(CCCC(=O)O)C3)n2)ccc1C(F)(F)F (centres unmarked) [Compound 83, 4-(1-(6-(N-(6-(2-ethylphenyl)-5-(trifluoromethyl)pyridin-2-yl)sulfamoyl)pyridin-2-yl)piperidin-3-yl)butanoic Acid]
0.97 | CCN(CCCC(=O)O)c1cccc(S(=O)(=O)Nc2ccc(C(F)(F)F)c(-c3ccccc3C(C)C)n2)n1 [Compound 89, 4-(ethyl(6-(N-(6-(2-isopropylphenyl)-5-(trifluoromethyl)pyridin-2-yl)sulfamoyl)pyridin-2-yl)amino)butanoic Acid]
1.67 | Cc1ccccc1-c1nc(NS(=O)(=O)c2cccc(N(CCC(=O)O)C(C)C)n2)ccc1C(F)(F)F [Compound 91, 3-(isopropyl(6-(N-(6-(o-tolyl)-5-(trifluoromethyl)pyridin-2-yl)sulfamoyl)pyridin-2-yl)amino)propanoic Acid]
1.33 | CCc1ccc(F)cc1-c1nc(NS(=O)(=O)c2cccc(N(CCCCC(=O)O)C(C)C)n2)ccc1C(F)(F)F [Compound 99, 5-((6-(N-(6-(2-ethyl-5-fluorophenyl)-5-(trifluoromethyl)pyridin-2-yl)sulfamoyl)pyridin-2-yl)(isopropyl)amino)pentanoic Acid]
2.49 | Cc1ccc(F)cc1-c1nc(NS(=O)(=O)c2cccc(N(CCCCC(=O)O)C(C)C)n2)ccc1C(F)(F)F [Compound 100, 5-((6-(N-(6-(5-fluoro-2-methylphenyl)-5-(trifluoromethyl)pyridin-2-yl)sulfamoyl)pyridin-2-yl)(isopropyl)amino)pentanoic Acid]
1.59 | Cc1ccccc1-c1nc(NS(=O)(=O)c2cccc(N(CCCCC(=O)O)C(C)C)n2)ccc1C(F)(F)F [Compound 101, 5-(isopropyl(6-(N-(6-(o-tolyl)-5-(trifluoromethyl)pyridin-2-yl)sulfamoyl)pyridin-2-yl)amino)pentanoic Acid]
1.28 | Cc1ccc(F)cc1-c1nc(NS(=O)(=O)c2cccc(N(CCCC(=O)O)CC3CC3)n2)ccc1C(F)(F)F [Compound 104, 4-((cyclopropylmethyl)(6-(N-(6-(5-fluoro-2-methylphenyl)-5-(trifluoromethyl)pyridin-2-yl)sulfamoyl)pyridin-2-yl)amino)butanoic Acid]
1.78 | CCN(CCC(=O)O)c1cccc(S(=O)(=O)Nc2ccc(C(F)(F)F)c(-c3cc(F)ccc3C3CC3)n2)n1 [Compound 111, 3-((6-(N-(6-(2-cyclopropyl-5-fluorophenyl)-5-(trifluoromethyl)pyridin-2-yl)sulfamoyl)pyridin-2-yl)(ethyl)amino)propanoic Acid]
1.57 | CCCCN(CCCC(=O)O)c1cccc(S(=O)(=O)Nc2ccc(Cl)c(-c3cccnc3C(C)C)n2)n1 [Compound 112, 4-(butyl(6-(N-(3-chloro-2′-isopropyl-[2,3′-bipyridin]-6-yl)sulfamoyl)pyridin-2-yl)amino)butanoic Acid]
1.21 | CCc1ccc(F)cc1-c1nc(NS(=O)(=O)c2cccc(N(CCC(=O)O)CC3CC3)n2)ccc1C(F)(F)F [Compound 116, 3-((cyclopropylmethyl)(6-(N-(6-(2-ethyl-5-fluorophenyl)-5-(trifluoromethyl)pyridin-2-yl)sulfamoyl)pyridin-2-yl)amino)propanoic Acid]
2.43 | Cc1ccccc1-c1nc(NS(=O)(=O)c2cccc(SCCC(=O)O)n2)ccc1C(F)(F)F [Compound 117, 3-((6-(N-(6-(o-tolyl)-5-(trifluoromethyl)pyridin-2-yl)sulfamoyl)pyridin-2-yl)thio)propanoic Acid]

Same assay, conditions: efficacy relative to reference compound 3-(6-(1-(2,2-difluorobenzo[d][1,3]dioxol-5-yl)cyclopropane-1-carboxamido)-3-methylpyridin-2-yl)benzoic acid; CFBE41o- cells, 24 h; read-out: DelF508-CFTR-HRP Amax %

Emax [%] | Compound
945 | C=Cc1ccccc1-c1nc(NS(=O)(=O)c2cccc(N3CCC[C@H](CC(=O)OCC)C3)n2)ccc1C(F)(F)F [Compound 77, ethyl (R)-2-(1-(6-(N-(5-(trifluoromethyl)-6-(2-vinylphenyl)pyridin-2-yl)sulfamoyl)pyridin-2-yl)piperidin-3-yl)acetate]
330 | Cc1ccccc1-c1nc(NS(=O)(=O)c2cccc(N3CCC(CCC(=O)O)CC3)n2)ccc1C(F)(F)F [Compound 79, 3-(1-(6-(N-(6-(o-tolyl)-5-(trifluoromethyl)pyridin-2-yl)sulfamoyl)pyridin-2-yl)piperidin-4-yl)propanoic Acid]
715 | CCc1ccc(F)cc1-c1nc(NS(=O)(=O)c2cccc(N(CCC(=O)O)C3CC3)n2)ccc1C(F)(F)F [Compound 113, 3-(cyclopropyl(6-(N-(6-(2-ethyl-5-fluorophenyl)-5-(trifluoromethyl)pyridin-2-yl)sulfamoyl)pyridin-2-yl)amino)propanoic Acid]
196 | Cc1ccccc1-c1nc(NS(=O)(=O)c2cccc(SCCC(=O)O)n2)ccc1C(F)(F)F [Compound 117, 3-((6-(N-(6-(o-tolyl)-5-(trifluoromethyl)pyridin-2-yl)sulfamoyl)pyridin-2-yl)thio)propanoic Acid]
